Experimental findings from ChEMBL document CHEMBL2417445, “Access to 7β-analogs of codeine with mixed μ/δ agonist activity via 6,7-α-epoxide opening” (Bioorg Med Chem Lett, 2013) are described below.

For assay [1], the target named is T1, Mu-type opioid receptor (Homo sapiens, UniProt P35372). Briefly: Agonist activity at human MOR assessed as inhibition of forskolin-stimulated cAMP accumulation after 30 mins by cell based TR-FRET assay. It is filed as functional. (cAMP levels reflect the balance of adenylyl cyclase and phosphodiesterase activity.)
Assay [2] deals with Kappa-type opioid receptor (Homo sapiens, UniProt P41145). It counts as functional, cell-based.
Description: Agonist activity at human KOR assessed as inhibition of forskolin-stimulated cAMP accumulation after 30 mins by cell based TR-FRET assay
Assay [3] deals with Kappa-type opioid receptor (Mus musculus, UniProt P33534). The assay can be described thus: Agonist activity at mouse KOR assessed as inhibition of forskolin-stimulated cAMP accumulation after 30 mins by cell based TR-FRET assay. It is filed as functional.
The species entered for assay [4] is Homo sapiens. The assay can be described thus: Selectivity ratio of EC50 for human KOR to EC50 for human DOR.
Assay [5] concerns the target T2, Delta-type opioid receptor (Homo sapiens, UniProt P41143). The assay can be described thus: Activation of human DOR assessed as inhibition of forskolin-stimulated cAMP accumulation after 30 mins by cell based TR-FRET assay relative to DPDPE. It is filed as functional.
The target of assay [6] is Mu-type opioid receptor (Mus musculus, UniProt P42866). Briefly: Agonist activity at mouse MOR assessed as inhibition of forskolin-stimulated cAMP accumulation after 30 mins by cell based TR-FRET assay. It is filed as functional.
For assay [7], the target named is T2, Delta-type opioid receptor. Briefly: Agonist activity at human DOR assessed as inhibition of forskolin-stimulated cAMP accumulation after 30 mins by cell based TR-FRET assay. It counts as functional.
The target in assay [8] is Mu-type opioid receptor (Mus musculus) (UniProt P42866). Briefly: Activation of mouse MOR assessed as inhibition of forskolin-stimulated cAMP accumulation after 30 mins by cell based TR-FRET assay relative to DAMGO. It counts as functional.
For assay [9], the species on record is Homo sapiens. Briefly: Selectivity ratio of EC50 for human KOR to EC50 for human MOR.
The target in assay [10] is T1, Mu-type opioid receptor. The assay can be described thus: Ratio of morphine EC50 to compound EC50 for human MOR.

SMILES strings stand for the structures.

T1 sequence (P35372 whole entry): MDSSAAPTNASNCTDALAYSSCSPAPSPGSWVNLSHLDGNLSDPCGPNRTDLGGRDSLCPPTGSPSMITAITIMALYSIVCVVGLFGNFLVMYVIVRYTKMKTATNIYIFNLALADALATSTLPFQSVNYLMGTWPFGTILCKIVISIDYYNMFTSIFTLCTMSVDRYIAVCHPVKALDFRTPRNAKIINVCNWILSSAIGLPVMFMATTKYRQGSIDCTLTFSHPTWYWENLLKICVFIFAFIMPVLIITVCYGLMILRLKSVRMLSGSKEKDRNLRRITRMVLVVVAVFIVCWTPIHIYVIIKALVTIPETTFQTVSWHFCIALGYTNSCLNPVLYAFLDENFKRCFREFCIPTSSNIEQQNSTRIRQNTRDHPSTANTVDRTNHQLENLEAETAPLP
Chain of Kappa-type opioid receptor (Mus musculus, UniProt P33534) (P33534 whole entry): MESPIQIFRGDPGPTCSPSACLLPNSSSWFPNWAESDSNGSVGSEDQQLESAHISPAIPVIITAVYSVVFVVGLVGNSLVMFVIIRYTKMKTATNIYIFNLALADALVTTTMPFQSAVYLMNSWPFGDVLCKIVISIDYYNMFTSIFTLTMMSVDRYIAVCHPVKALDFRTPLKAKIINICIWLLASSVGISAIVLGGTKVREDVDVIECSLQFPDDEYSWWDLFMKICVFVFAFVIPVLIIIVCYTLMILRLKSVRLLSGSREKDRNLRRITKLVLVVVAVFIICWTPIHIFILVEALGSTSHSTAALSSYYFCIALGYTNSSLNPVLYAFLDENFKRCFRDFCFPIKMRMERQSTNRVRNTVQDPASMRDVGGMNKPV
T2 sequence (P41143 whole entry): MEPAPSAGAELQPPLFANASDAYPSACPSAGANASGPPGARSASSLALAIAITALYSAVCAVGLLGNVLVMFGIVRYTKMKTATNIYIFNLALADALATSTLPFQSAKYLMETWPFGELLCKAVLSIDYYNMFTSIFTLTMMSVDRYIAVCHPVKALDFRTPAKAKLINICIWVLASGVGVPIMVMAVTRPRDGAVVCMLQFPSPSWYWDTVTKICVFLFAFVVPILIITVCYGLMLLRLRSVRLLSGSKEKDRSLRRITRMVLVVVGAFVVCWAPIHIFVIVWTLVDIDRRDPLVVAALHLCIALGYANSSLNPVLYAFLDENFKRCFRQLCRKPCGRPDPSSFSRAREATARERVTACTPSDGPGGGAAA
Chain of Mu-type opioid receptor (Mus musculus, UniProt P42866) (P42866 whole entry): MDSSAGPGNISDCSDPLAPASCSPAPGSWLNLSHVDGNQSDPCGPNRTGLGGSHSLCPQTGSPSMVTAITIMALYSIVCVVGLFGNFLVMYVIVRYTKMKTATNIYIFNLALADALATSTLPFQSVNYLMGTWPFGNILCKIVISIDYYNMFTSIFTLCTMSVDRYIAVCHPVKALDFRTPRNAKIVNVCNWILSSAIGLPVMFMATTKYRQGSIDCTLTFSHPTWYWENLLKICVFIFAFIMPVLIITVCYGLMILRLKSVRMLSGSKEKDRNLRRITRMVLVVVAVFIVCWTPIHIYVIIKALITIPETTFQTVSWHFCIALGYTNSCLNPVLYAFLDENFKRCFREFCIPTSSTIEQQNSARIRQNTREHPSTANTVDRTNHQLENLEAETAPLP
Chain of Mu-type opioid receptor (Mus musculus) (P42866 whole entry): as above
Chain of Kappa-type opioid receptor (Homo sapiens, UniProt P41145) (P41145 whole entry): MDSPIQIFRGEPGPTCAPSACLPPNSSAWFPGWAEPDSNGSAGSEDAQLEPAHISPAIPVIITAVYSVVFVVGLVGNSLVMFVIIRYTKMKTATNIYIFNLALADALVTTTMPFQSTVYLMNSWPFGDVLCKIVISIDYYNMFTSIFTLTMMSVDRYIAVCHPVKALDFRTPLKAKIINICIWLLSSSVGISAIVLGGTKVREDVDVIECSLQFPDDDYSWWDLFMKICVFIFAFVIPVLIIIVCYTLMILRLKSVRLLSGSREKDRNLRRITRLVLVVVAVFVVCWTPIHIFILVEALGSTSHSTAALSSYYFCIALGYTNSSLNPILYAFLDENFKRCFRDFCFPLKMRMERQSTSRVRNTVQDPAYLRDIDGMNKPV

Turning to `COc1cc(C)c2c3c1O[C@H]1[C@H](F)[C@H](C)C[C@H]4[C@@H](C2)N(C)CC[C@@]341`, the EC50 came to 3.2 µM on Mu-type opioid receptor [1]; 5 µM in assay [2]; 10 µM in assay [3]; 0.8 µM at Mu-type opioid receptor [6]; 3.2 µM in assay [7]. For the same compound, the Ratio EC50 in the assay filed under Homo sapiens [4] and in the assay filed under Homo sapiens [9] was 1 each time. Moreover, the inhibition in assay [5] turned out to be 86%; in assay [8], 78%.
For `C[C@@H](NC(=O)[C@@H](N)Cc1ccc(O)cc1)C(=O)NCC(=O)N(C)[C@@H](Cc1ccccc1)C(=O)NCCO` [DAMGO], in assay [5], the inhibition was determined as 99%.
Consider `COc1ccc2c3c1O[C@H]1[C@@H](O)[C@H](C)C[C@H]4[C@@H](C2)N(C)CC[C@@]341`, for which the concentration giving a half-maximal response (EC50) was determined as 2 µM at Mu-type opioid receptor [1]; 25 µM in assay [2]; 32 µM in [3]; 0.6 µM on Mu-type opioid receptor [6]; 3.2 µM in assay [7]. Also, the Ratio EC50 in the assay listed under Homo sapiens [4] was 8; in the assay filed under Homo sapiens [9], 13. Moreover, the inhibition in [5] and in [8] was 97% in each case.
Take `COc1ccc2c3c1O[C@H]1[C@@H](O)[C@H](F)C[C@H]4[C@@H](C2)N(C)CC[C@@]341`: the EC50 on Mu-type opioid receptor [1] turned out to be 40 µM; on Mu-type opioid receptor [6], 8 µM; in [7], 79 µM. Moreover, the Ratio EC50 in the assay filed under Homo sapiens [4] turned out to be 1; in the assay listed under Homo sapiens [9], 2. For the same compound, the results for the inhibition in assay [5] and in assay [8] were 90% and 79%, respectively.
In the case of `COc1ccc2c3c1O[C@H]1[C@@H](OC)[C@H](C)C[C@H]4[C@@H](C2)N(C)CC[C@@]341`, the EC50 at Mu-type opioid receptor [1] was determined as 3.2 µM; in assay [2] it was 32 µM; in [3], 50 µM; at Mu-type opioid receptor [6], 0.8 µM; in assay [7] it was 2.5 µM. Further, the Ratio EC50 came out at 13 in the assay listed under Homo sapiens [4] and 10 in the assay listed under Homo sapiens [9]. Also, the inhibition was found to be 94% in assay [5] and 92% in assay [8].
On to `COc1cc(C)c2c3c1O[C@H]1[C@@H](O)[C@H](C)C[C@H]4[C@@H](C2)N(C)CC[C@@]341`, for which the EC50 at Mu-type opioid receptor [1] came to 5 µM; in [3], 50 µM; at Mu-type opioid receptor [6], 2 µM; in [7], 16 µM. In addition, the Ratio EC50 worked out at 1 in the assay listed under Homo sapiens [4] and 3 in the assay listed under Homo sapiens [9]. Moreover, the results for the inhibition in assay [5] and in [8] were 73% and 77%, respectively.
Take `COc1ccc2c3c1O[C@H]1[C@@H](O)[C@H](O)C[C@H]4[C@@H](C2)N(C)CC[C@@]341`: the EC50 on Mu-type opioid receptor [1] came out at 16 µM; in assay [2], 126 µM; in assay [3], 159 µM; on Mu-type opioid receptor [6], 6.3 µM; in assay [7] it was 100 µM. In addition, the Ratio EC50 is 1 in the assay listed under Homo sapiens [4] and 8 in the assay listed under Homo sapiens [9]. In addition, the inhibition was found to be 117% in assay [5] and 96% in [8].
Turning to `COc1ccc2c3c1O[C@H]1[C@@H](O)[C@H](OC)C[C@H]4[C@@H](C2)N(C)CC[C@@]341`, the EC50 at Mu-type opioid receptor [1] is 16 µM; in assay [2], 50 µM; on Mu-type opioid receptor [6], 4 µM; in assay [7], 13 µM. Further, the Ratio EC50 in the assay listed under Homo sapiens [4] was found to be 4; in the assay listed under Homo sapiens [9] it was 3. The inhibition in assay [5] worked out at 84%; in assay [8], 86%.
On to `CN1CC[C@]23c4c5ccc(O)c4O[C@H]2[C@@H](O)C=C[C@H]3[C@H]1C5`, for which the figures for the inhibition in assay [5] and in [8] were 69% and 97%, respectively.
Consider `C[C@@H]1C[C@H]2[C@H]3Cc4ccc(O)c5c4[C@@]2(CCN3C)[C@@H](O5)[C@H]1O`, for which the EC50 at Mu-type opioid receptor [1] turned out to be 0.02 µM; in assay [2], 1.6 µM; in assay [3], 1.6 µM; at Mu-type opioid receptor [6], 0.01 µM; in assay [7], 0.08 µM. For the same compound, the Ratio EC50 in the assay filed under Homo sapiens [4] came to 20; in the assay filed under Homo sapiens [9] it was 80; at Mu-type opioid receptor [10], 2. Further, the inhibition amounted to 107% in [5] and 99% in assay [8].
On to `COc1ccc2c3c1O[C@H]1C(=O)CC[C@@]4(O)[C@@H](C2)N(C)CC[C@]314` [OXYCODONE], for which the concentration for a half-maximal effect (EC50) in assay [3] was 16 µM; at Mu-type opioid receptor [6], 0.16 µM. The inhibition in assay [5] was 93%; in [8], 97%.

As usually defined, the EC50 is the concentration giving half of the maximal effect. The inhibition is the change of the read-out against control, counted positive when it falls.
